In one assay the test system is blood glucose. Description: Anti-hyperglycaemic activity (blood glucose after subcutaneous glucose in fasted mice). The format is in vivo, Female CFLP mice. The conditions noted are these: Mus musculus, read-out: Reduction in area under blood glucose curve. The procedure:
Female CFLP mice, each weighing approximately 25 g were fasted for 24 hours prior to the study. The compounds under study were administered orally as an aqueous solution to each of 6 mice. 6 mice were given water as a control. 30 minutes later a blood sample (20 μl ) was obtained from the tail for the analysis of blood glucose. Immediately after taking this blood sample, glucose (1 g/kg body weight) was administered subcutaneously to each mouse. Blood samples were then obtained from each mouse at 30 minute intervals for 120 minutes.
Compounds that produced a significant (P<0.05) reduction of blood glucose, compared with control mice given water, at any time interval, were considered active. The area under the blood glucose curve over the 2 hour period after the adminstration of the glucose was calculated for each compound and compared with the value for control animals.

Another assay relates to platelet aggregation. The assay can be described thus: Platelet aggregation inhibition activity (collagen-induced fall in platelet count, oral dosing). The format is in vivo, Male CFLP mice. Particulars: collagen 400 μg/kg i.v. two hours later. The procedure:
Male CFLP mice (ca 20 g, n=8) were dosed orally with compound or vehicle (controls) after an overnight fast. Two hours later each mouse received an intravenous dose of collagen (400 μg/kg, pH 6-6.6). Exactly 30 seconds after injection of collagen, each mouse was placed in a chamber of CO2 until respiration ceased. […] Each blood platelet count was expressed as a percent of that obtained in a tail blood sample taken immediately before injection of collagen.

For a further assay, the system named is Rat hearts. The assay can be described thus: Cardiac activity, rat hearts perfused by the Langendorff procedure. The procedure:
Rat hearts were perfused by the Langendorff procedure as follows:
Hearts were dissected free within 30 seconds of death and reverse perfused via the aorta and coronary vessels with Krebs-Ringer bicarbonate solution (pH 7.4, 37° C.) gassed with 95% oxygen:5% carbon dioxide at a flow rate between 8-12 cm^3 /minute. Responses were observed after injection of drug dissolved in isotonic saline into the perfusion media.
Results are expressed as a percentage of the maximum response due to salbutamol.

The next assay has as its system rat ear inflammation. The assay can be described thus: Topical anti-inflammatory activity (croton oil rat ear inflammation). In kind it is in vivo. The conditions noted are these: 1.0 mg/rat ear; 6 hours; activity = significant (5% level) reduction in ear weight vs non-drug treated control. The procedure: The method used is based on that described by G. Tonelli et al (Endocrinology, 77, 625-634, 1965). An inflammation is induced in the rat ear by the application of 50 μl of a 1% solution of croton oil in tetrahydrofuran, test compounds being dissolved in the irritant vehicle. After 6 hours the inflammation is assessed by killing the animals and weighing the ears. Topical anti-inflammatory activity of a compound is generally considered to be shown when a significant (5% level) reduction in ear weight is seem compared to non-drug treated control.

Setting [1] is: dose 1 μ moles/kg po, 2 hour period after glucose 1 g/kg s.c.
[2] abbreviates: read-out: Heart Rate (percentage of the maximum response due to salbutamol).
[3] abbreviates: read-out: Heart Tension (percentage of the maximum response due to salbutamol).
The mark [4] stands for this setting: 10 μg added to perfusate (salbutamol dose not given), read-out: Heart Rate (percentage of the maximum response due to salbutamol).
Where [5] appears, read: 10 μg added to perfusate (salbutamol dose not given), read-out: Heart Tension (percentage of the maximum response due to salbutamol).

Molecules are shown by their SMILES. Structures can show the parent of a compound that is named as a salt. Where two headings read alike, the source gives them in different places.

For `COc1ccc(C[C@H](C)NC[C@H](O)c2cccc(Cl)c2)cc1OC` (relative stereo) [Example 20, N-[2-(3,4-Dimethoxyphenyl)-1-methylethyl]-2-hydroxy-2-(3-chlorophenyl)ethanamine-(RS,SR) diastereoisomer], in the assay on blood glucose (po, 2 h), the inhibition in vivo at 2.5 µmol/kg turned out to be 34%. `COc1ccc(CC(C)NCC(O)c2cccc(Br)c2)cc1` (stereo not shown) [Example 8, N-[2-(4-Methoxyphenyl)-1-methylethyl]-2-hydroxy-2-(3-bromophenyl)ethanamine]: in the assay with blood glucose (po, 2 h), the inhibition in vivo at 1 µmol/kg was 30%. With `COc1ccc(C[C@H](C)NC[C@H](O)c2cccc(Cl)c2)cc1F` (relative stereo) [Example 15, N-[2-(3-Fluoro-4-methoxyphenyl)-1-methylethyl]-2-hydroxy-2-(3-chlorophenyl)ethanamine-(RS,SR) diastereoisomer], in the assay with blood glucose (po, 2 h), the inhibition in vivo at 1 µmol/kg was determined as 19%. In the case of `COc1ccc(C[C@@H](C)NC[C@H](O)c2cccc(Cl)c2)cc1` (relative stereo) [Example 6, N-[2-(4-Methoxyphenyl)-1-methylethyl]-2-hydroxy-2-(3-chlorophenyl)ethanamine hydrobromide-(RR,SS) diastereoisomer], in the assay on blood glucose (po, 2 h), the inhibition in vivo at 0.5 µmol/kg was 30% and the inhibition in vivo at 1 µmol/kg stood at 40%. Take `CCCCCCCCCCOc1ccc(CC(C)NCC(O)c2cccc(Cl)c2)cc1` (stereo not shown) [Example 13, N-[2-(4-^n Decyloxyphenyl)-1-methylethyl]-2-hydroxy-2-(3-chlorophenyl)ethanamine]: the inhibition in vivo at 1 µmol/kg in the assay on blood glucose (setting [1]) is 22%. Regarding `CC(Cc1ccc(OC2CCCCC2)cc1)NCC(O)c1cccc(Cl)c1` (stereo not shown) [Example 21, N-[2-(4-Cyclohexyloxyphenyl)-1-methylethyl]-2-hydroxy-2-[3-chlorophenyl)ethanamine hydrochloride], the inhibition in vivo at 2.5 µmol/kg with blood glucose (po, 2 h) was determined as 53%. In the case of `COc1ccc(CC(C)NCC(O)c2cccc(F)c2)cc1` (stereo not shown) [Example 7, N-[2-(4-Methoxyphenyl)-1-methylethyl]-2-hydroxy-2-(3-fluorophenyl)ethanamine], the inhibition in vivo at 5 µmol/kg in the assay with blood glucose (po, 2 h) stood at 32%. As to `CC(Cc1ccc(O)cc1)NCC(O)c1cccc(Cl)c1` (stereo not shown) [Example 2, N-[2-(4-Hydroxyphenyl)-1-methylethyl]-2-hydroxy-2-(3-chlorophenyl)ethanamine], in the assay with blood glucose (po, 2 h), the inhibition in vivo at 1 µmol/kg amounted to 47%. Moreover, in the assay with platelet aggregation (dose 5 μmol/kg po), the “% INHIBITION OF RESPONSE TO COLLAGEN” value is 40%. Moreover, the values for the Emax in the assay with Rat hearts (setting [2]) and with Rat hearts (setting [3]) were 14% and 26%, respectively. Consider `COc1cccc(CC(C)NCC(O)c2cccc(Cl)c2)c1` (stereo not shown) [Example 23, N-[2-(3-Methoxyphenyl)-1-methylethyl]-2-hydroxy-2-(3-chlorophenyl)ethanamine hydrochloride], for which the inhibition in vivo at 2.5 µmol/kg in the assay on blood glucose (po, 2 h) amounted to 22%.

Consider `COc1ccc(CC(C)NCC(O)c2cccc(Cl)c2)cc1F` (stereo not shown) [Example 3, N-[2-(3-Fluoro-4-methoxyphenyl)-1-methylethyl]-2-hydroxy-2-(3-chlorophenyl)ethanamine], for which the inhibition in vivo at 1 µmol/kg with blood glucose (po, 2 h) was found to be 46%. The results for the Emax in the assay with Rat hearts (setting [2]) and with Rat hearts (setting [3]) were 0% and 36%, respectively.

In the case of `CC(=O)Oc1ccccc1C(=O)O` [Aspirin, reference compound], the “% INHIBITION OF RESPONSE TO COLLAGEN” value in the assay with platelet aggregation (dose 600 μmol/kg po) turned out to be 33%.

As to `COc1ccc(CCC(C)(C)NCC(O)c2cccc(Cl)c2)cc1` (stereo not shown) [Example 16, N-[3-(4-Methoxyphenyl)-1,1-dimethylpropyl]-2-hydroxy-2-(3-chlorophenyl)ethanamine], in the assay on blood glucose (dose 50 μ moles/kg po, 2 hour period after glucose 1 g/kg s.c.), the inhibition in vivo at 50 µmol/kg was found to be 21%. Consider `CC(Cc1ccc(OCc2ccccc2)cc1)NCC(O)c1cccc(Cl)c1` (stereo not shown) [Example 1, N-[2-(4-Benzyloxyphenyl)-1-methylethyl]-2-hydroxy-2-(3-chlorophenyl)ethanamine], for which the inhibition in vivo at 1 µmol/kg with blood glucose (setting [1]) was 36%. In addition, the Emax stood at 0% in the assay with Rat hearts (setting [4]) and 7% with Rat hearts (setting [5]). Turning to `CCCCCOc1ccc(CC(C)NCC(O)c2cccc(Cl)c2)cc1` (stereo not shown) [Example 12, N-[2-(4-^n Pentyloxyphenyl)-1-methylethyl]-2-hydroxy-2-(3-chlorophenyl)ethanamine], in the assay on blood glucose (po, 2 h), the inhibition in vivo at 0.5 µmol/kg is 36%. For `CC(CCc1ccc(O)cc1)NCC(O)c1cccc(Cl)c1` (stereo not shown) [Example 10, N-[3-(4-Hydroxyphenyl)-1-methylpropyl]-2-hydroxy-2-(3-chlorophenyl)ethanamine], in the assay on blood glucose (setting [1]), the inhibition in vivo at 1 µmol/kg was 47%. For the same compound, in the assay with platelet aggregation (dose 5 μmol/kg po), the “% INHIBITION OF RESPONSE TO COLLAGEN” value is given as 40%. For the compound `COc1ccc(CCNCC(O)c2cccc(Cl)c2)cc1` (stereo not shown) [Example 14, N-[2-(4-Methoxyphenyl)ethyl]-2-hydroxy-2-(3-chlorophenyl)ethanamine], the inhibition in vivo at 1 µmol/kg in the assay on blood glucose (setting [1]) worked out at 39%. For the compound `COc1ccccc1CC(C)NCC(O)c1cccc(Cl)c1` (stereo not shown) [Example 24, N-[2-(2-Methoxyphenyl)-1-methylethyl]-2-hydroxy-2-(3-chlorophenyl)ethanamine], in the assay with blood glucose (po, 2 h), the inhibition in vivo at 5 µmol/kg worked out at 27%.

Regarding `COc1ccc(C[C@@H](C)NC[C@H](O)c2cccc(Cl)c2)cc1F` (relative stereo) [Example 4, N-[2-(3-Fluoro-4-methoxyphenyl)-1-methylethyl]-2-hydroxy-2-(3-chlorophenyl)ethanamine hydrobromide-(RR,SS) diastereoisomer], the inhibition in vivo at 1 µmol/kg in the assay with blood glucose (po, 2 h) amounted to 42%.

Turning to `CC(C)(C)NCC(O)c1ccc(O)c(CO)c1` (stereo not shown) [Salbutamol, salbutamol, reference compound], the Emax in the assay with Rat hearts (setting [4]) and with Rat hearts (setting [5]) was 100% throughout. As for `CC(Cc1ccc(OCCc2ccccc2)cc1)NCC(O)c1cccc(Cl)c1` (stereo not shown) [Example 22, N-[2-(4-{2-phenylethoxy}phenyl)-1-methylethyl]-2-hydroxy-2-(3-chlorophenyl)ethanamine], in the assay with blood glucose (dose 2.5 μ moles/kg po, 2 hour period after glucose 1 g/kg s.c.), the inhibition in vivo at 2.5 µmol/kg stood at 13%. As to `COc1ccc(CC(C)NCC(O)c2cccc(Cl)c2)cc1` (stereo not shown) [Example 5, N-[2-(4-Methoxyphenyl)-1-methylethyl]-2-hydroxy-2-(3-chlorophenyl)ethanamine], the inhibition in vivo at 1 µmol/kg in the assay with blood glucose (po, 2 h) turned out to be 49%. For the same compound, in the assay with rat ear inflammation, the “Topical anti-inflammatory ACTIVITY” value is listed as “Active”. Regarding `COc1ccc(CC(C)NCC(O)c2cccc(Cl)c2)cc1C` (stereo not shown) [Example 18, N-[2-(4-methoxy-3-methylphenyl)-1-methylethyl]-2-hydroxy-2-(3-chlorophenyl)ethanamine], in the assay with blood glucose (po, 2 h), the inhibition in vivo at 2.5 µmol/kg was 58%. Turning to `COc1ccc(C[C@@H](C)NCC(O)c2cccc(Cl)c2)cc1F` (stereo partly drawn) [Example 17, N-[2-(3-Fluoro-4-methoxyphenyl)-1-(R)-1-methylethyl]-2-(R,S)-2-hydroxy-2-(3-chlorophenyl)ethanamine hydrobromide], the inhibition in vivo at 2.5 µmol/kg in the assay with blood glucose (po, 2 h) worked out at 38%. For `COc1ccc(CC(C)NCC(O)c2cccc(Cl)c2)cc1OC` (stereo not shown) [Example 19, N-[2-(3,4-Dimethoxyphenyl)-1-methylethyl]-2-hydroxy-2-(3-chlorophenyl)ethanamine], the inhibition in vivo at 2.5 µmol/kg in the assay with blood glucose (po, 2 h) was 21%.

`COc1ccc(CC(C)NCC(O)c2cccc(Cl)c2F)cc1` (stereo not shown) [Example 9, N-[2-(4-Methoxyphenyl)-1-methylethyl]-2-hydroxy-2-(3-chloro-2-fluorophenyl)ethanamine]: in the assay on blood glucose (po, 2 h), the inhibition in vivo at 1 µmol/kg was 40%.

On to `CC(Cc1ccc(OC(C)C)cc1)NCC(O)c1cccc(Cl)c1` (stereo not shown) [Example 11, N-[2-(4-Isopropoxyphenyl)-1-methylethyl]-2-hydroxy-2-(3-chlorophenyl)ethanamine], for which the inhibition in vivo at 0.2 µmol/kg with blood glucose (po, 2 h) came out at 12.5%.

(Values after US4622342A, “Secondary amines” (priority 1981, dated 1986).)
